From patent US8765814B2, “N-hydroxyformamide derivative and medicament containing same” (Kaken Pharmaceutical Co., Ltd., priority 2010, dated 2014)
pIC50: −log10 of the molar value. Values belong to the compound of their own block, whether it stands above or below them.

How the values were obtained:
ADAM17 = biological target: T1, ADAM17 (Homo sapiens, UniProt P78536); assay: ADAM17 inhibition test; type: biochemical; settings: recombinant ADAM17 (cDNA from THP-1 cells), fluorescent synthetic substrate Nma-[…]Dnp-D-Arg-NH2, 37° C., 1.5 hours; read-out: IC50 Value (50% inhibitory concentration against ADAM17)
T1 construct: made in house; host or cells: mammal cells or insect cells (not specified which)
Description: The nucleotide sequence of ADAM17 was reported by Moss et al. (Moss, M. L. et al., Nature 1997, 385, 733-736). Accordingly, the cDNA was obtained from THP-1 cells of a human monocytic cell line in the usual way, and this was inserted into an expression vector, and thereafter the vector was transformed in mammal cells or insect cells to thereby make the cells express ADAM17.
In the ADAM17 inhibition test, ADAM17 obtained in the manner as above was used as an enzyme, and a fluorescent synthetic substrate Nma (N-methylanthranylic acid)-[…]Dnp (dinitrophenyl)-D-Arg-NH2 containing the ADAM17-cleaved sequence of a membrane-bound TNF was used as the substrate. Using these in the test, the ADAM17 activity in the presence or absence of the test substance was measured. The method of ADAM17 inhibition test is mentioned below.
(§1) Concretely, 90 μl of an enzyme liquid as prepared to have 14 units in an assay buffer A (50 mM tris-hydrochloride buffer (pH 7.5) containing 200 mM sodium chloride, 5 mM calcium chloride, 10 μM zinc sulfate, 0.004% sodium azide, and 2 mg/mL bovine serum albumin) (the amount of enzyme capable of decomposing 1 pmol of substrate at 25° C. for 1 minute was defined to be 1 unit), and 90 μL a fluorescent synthetic substrate as prepared to be 20 μM in an assay buffer B (50 mM tris-hydrochloride buffer (pH 7.5) containing 200 mM sodium chloride, 5 mM calcium chloride, 10 μM zinc sulfate, 0.004% sodium azide, and 0.05% PLURONIC F-68) were mixed, and reacted at 37° C. for 1.5 hours. Subsequently, using a fluorescent intensity meter (Fluoroskan Ascent), the reaction liquid was analyzed at an excitation wavelength of 355 nm and at a measuring wavelength of 460 nm to determine the enzymatic activity therein.
(§2) From the enzymatic activity in the presence or absence of the test compound, the inhibitory percentage was determined, and the 50% inhibitory concentration (IC50) of the test compound was calculated.
The 50% inhibitory concentration against ADAM17 of the N-hydroxyformamide derivative of the invention, as determined in this test, was shown in Table 1.

ADAM10 = biological target: T2, ADAM10 (Homo sapiens, UniProt O14672); assay: ADAM10 inhibition test; type: biochemical; settings: recombinant ADAM10 (cDNA from THP-1 cells), fluorescent synthetic substrate Nma-[…]Dnp-D-Arg-NH2, 25° C., 5 hours; read-out: IC50 Value (50% inhibitory concentration against ADAM10)
T2 construct: made in house; host or cells: mammal cells or insect cells (not specified which)
T2 sequence (O14672 214-748): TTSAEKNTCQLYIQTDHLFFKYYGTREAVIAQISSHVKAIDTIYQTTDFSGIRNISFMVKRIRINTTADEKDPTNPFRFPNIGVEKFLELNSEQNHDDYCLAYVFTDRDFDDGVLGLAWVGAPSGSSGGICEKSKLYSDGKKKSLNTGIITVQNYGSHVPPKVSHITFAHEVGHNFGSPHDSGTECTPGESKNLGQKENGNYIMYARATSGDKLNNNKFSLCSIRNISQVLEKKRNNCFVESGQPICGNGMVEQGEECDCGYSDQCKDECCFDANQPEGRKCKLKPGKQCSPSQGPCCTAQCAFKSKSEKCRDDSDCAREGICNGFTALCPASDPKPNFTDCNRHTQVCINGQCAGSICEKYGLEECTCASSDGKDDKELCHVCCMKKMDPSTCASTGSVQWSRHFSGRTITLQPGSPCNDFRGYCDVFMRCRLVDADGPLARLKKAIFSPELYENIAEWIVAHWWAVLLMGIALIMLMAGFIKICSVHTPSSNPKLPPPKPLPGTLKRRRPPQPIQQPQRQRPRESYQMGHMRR
Description: The cDNA of ADAM10 was obtained from THP-1 cells in the usual way, and this was inserted into an expression vector, and thereafter the vector was transformed in mammal cells or insect cells to thereby make the cells express ADAM10. In the ADAM10 inhibition test, ADAM10 obtained in the manner as above was used as an enzyme, and a fluorescent synthetic substrate Nma (N-methylanthranylic acid)-[…]Dnp (dinitrophenyl)-D-Arg-NH2 was used as the substrate. Using these in the test, the ADAM10 activity in the presence or absence of the test substance was measured. The method of ADAM10 inhibition test is mentioned below.
as §1, with “liquid” for “liquid as”, “using” for “to have 14 units in”, “albumin),” for “albumin) (the amount of enzyme capable of decomposing 1 pmol of substrate at 25° C. for 1 minute was defined to be 1 unit),”, “25°” for “37°”, “5” for “1.5”
as §2
The 50% inhibitory concentration against ADAM10 of the N-hydroxyformamide derivative of the invention, as determined in this test, was shown in Table 2.

T1 sequence (P78536 215-824): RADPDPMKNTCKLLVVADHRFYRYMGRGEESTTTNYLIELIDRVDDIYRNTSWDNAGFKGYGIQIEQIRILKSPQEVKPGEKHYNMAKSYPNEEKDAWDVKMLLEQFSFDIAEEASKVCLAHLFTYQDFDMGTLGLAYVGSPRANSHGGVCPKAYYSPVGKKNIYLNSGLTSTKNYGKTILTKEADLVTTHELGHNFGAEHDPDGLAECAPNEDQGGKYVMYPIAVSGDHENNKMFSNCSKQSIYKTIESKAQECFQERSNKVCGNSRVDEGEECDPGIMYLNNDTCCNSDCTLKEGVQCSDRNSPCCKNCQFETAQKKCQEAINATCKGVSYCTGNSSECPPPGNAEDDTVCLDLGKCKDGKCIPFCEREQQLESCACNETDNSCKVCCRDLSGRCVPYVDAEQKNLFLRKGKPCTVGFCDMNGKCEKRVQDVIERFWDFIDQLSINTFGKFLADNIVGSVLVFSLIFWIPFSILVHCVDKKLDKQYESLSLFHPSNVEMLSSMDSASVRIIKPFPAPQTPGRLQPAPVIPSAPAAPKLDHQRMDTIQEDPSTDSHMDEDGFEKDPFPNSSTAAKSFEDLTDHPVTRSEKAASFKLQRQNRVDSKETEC

Structure (SMILES): CC#CCOc1ccc(S(=O)(=O)CC(c2ccc(CN3CCOCC3)cc2)N(O)C=O)cc1 (centres unmarked) [Compound I-6, N-[2-(4-But-2-ynyloxybenzenesulfonyl)-1-(4-morpholin-4-ylmethylphenyl)ethyl]-N-hydroxyformamide]
- pIC50 (ADAM17): 7.74
- pIC50 (ADAM10): 7.15

Structure (SMILES): CC#CCOc1ccc(S(=O)(=O)CC(c2ccc(CNC(=O)COC)cc2)N(O)C=O)cc1 (centres unmarked) [Compound I-3, N-{4-[2-(4-But-2-ynyloxybenzenesulfonyl)-1-(formylhydroxyamino)ethyl]benzyl}-2-methoxyacetamide]
- pIC50 (ADAM17): 8.09
- pIC50 (ADAM10): 7.38

Structure (SMILES): CCC#CCOc1ccc(S(=O)(=O)CC(c2ccc(CN3CCOCC3)cc2)N(O)C=O)cc1 (centres unmarked) [Compound I-7, N-Hydroxy-N-[1-(4-morpholin-4-ylmethylphenyl)-2-(4-pent-2-ynyloxybenzenesulfonyl)ethyl]formamide]
- pIC50 (ADAM17): 7.26
- pIC50 (ADAM10): 7.05

Structure (SMILES): CC#CCOc1ccc(S(=O)(=O)CC(c2ccc(CNC(=O)c3ccccc3)cc2)N(O)C=O)cc1 (centres unmarked) [Compound I-5, N-{4-[2-(4-But-2-ynyloxybenzenesulfonyl)-1-(formylhydroxyamino)ethyl]benzyl}benzamide]
- pIC50 (ADAM17): 8.14
- pIC50 (ADAM10): 7.72

More lines, in order of rising pIC50 (ADAM17), values ahead:

- pIC50 (ADAM17): 8.14
- pIC50 (ADAM10): 7.66
Structure (SMILES): CC#CCOc1ccc(S(=O)(=O)CC(c2ccc(CN(C)C)cc2)N(O)C=O)cc1 (centres unmarked) [Compound I-2, N-[2-(4-But-2-ynyloxybenzenesulfonyl)-1-(4-dimethylaminomethylphenyl)ethyl]-N-hydroxyformamide]

- pIC50 (ADAM17): 8.24
- pIC50 (ADAM10): 7.40
Structure (SMILES): CC#CCOc1ccc(S(=O)(=O)CC(c2ccc(CNS(C)(=O)=O)cc2)N(O)C=O)cc1 (centres unmarked) [Compound I-4, N-{4-[2-(4-But-2-ynyloxybenzenesulfonyl)-1-(formylhydroxyamino)ethyl]benzyl}methanesulfonamide]

- pIC50 (ADAM17): 8.28
- pIC50 (ADAM10): 7.89
Structure (SMILES): CC#CCOc1ccc(S(=O)(=O)CC(c2ccc(CN(CC)CC)cc2)N(O)C=O)cc1 (centres unmarked) [Compound I-1, N-[2-(4-But-2-ynyloxybenzenesulfonyl)-1-(4-diethylaminomethylphenyl)ethyl]-N-hydroxyformamide]
